Experiments:
PLCδ1^Δ44 = target: T1, PLCδ1^Δ44 (Homo sapiens, UniProt P51178, DEL445-487); test: IP-ONE assay in HEK stable cell line expressing PLCδ1^Δ44; type: cell-based
T1 construct: Avi-tag (N); His-tag (N); expressed in transfected cells
T1 sequence (P51178 with tags, fused parts or gaps DEL445-487): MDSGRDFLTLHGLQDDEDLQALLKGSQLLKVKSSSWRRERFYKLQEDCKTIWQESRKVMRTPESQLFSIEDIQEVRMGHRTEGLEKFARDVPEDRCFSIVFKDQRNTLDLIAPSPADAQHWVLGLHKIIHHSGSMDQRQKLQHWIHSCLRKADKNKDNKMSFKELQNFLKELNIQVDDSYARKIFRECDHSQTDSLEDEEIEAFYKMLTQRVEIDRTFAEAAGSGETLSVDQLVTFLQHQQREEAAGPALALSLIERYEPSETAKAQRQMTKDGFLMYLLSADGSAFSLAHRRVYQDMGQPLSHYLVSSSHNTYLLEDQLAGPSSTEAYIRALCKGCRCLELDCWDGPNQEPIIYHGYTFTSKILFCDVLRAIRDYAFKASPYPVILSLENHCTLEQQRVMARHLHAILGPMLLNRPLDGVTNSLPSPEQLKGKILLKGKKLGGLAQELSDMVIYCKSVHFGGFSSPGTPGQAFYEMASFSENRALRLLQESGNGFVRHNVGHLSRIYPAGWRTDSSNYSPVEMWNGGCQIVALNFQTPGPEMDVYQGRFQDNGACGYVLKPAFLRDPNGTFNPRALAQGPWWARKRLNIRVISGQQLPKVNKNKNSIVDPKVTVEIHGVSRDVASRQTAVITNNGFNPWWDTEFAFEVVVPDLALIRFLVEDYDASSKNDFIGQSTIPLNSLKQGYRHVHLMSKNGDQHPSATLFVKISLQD
Excerpt: (§1) For generating HEK cell lines that stably express PLC variants, an in-house Gateway compatible, Lenti viral vector was generated using In-Fusion cloning (Takara Bio) following manufacturer’s protocols. The vector backbone consisted of pLenti PGK Puro DEST (Addgene 19068). A KOZAK sequence, Avi-tag and His-tag (KAH cassette) was inserted between the PGK promoter and the attR1 vector regions. An IRES2 EmGFP cassette was inserted between the attR2 and WPRE regions. Both cassettes were PCR amplified from vector pHR-CMV-TetO2_3C-Avi-His6_IRES-EmGFP (Addgene 113888). Finally, a BirA ORF was cloned in-frame upstream of the EmGFP, which would express as a BirA-EmGFP fusion protein. The resulting Gateway compatible destination vector was used in the LR reaction (Thermo Fisher) with pENTR207 clones containing the PLCγ1^S345F or an activated version of PLCδ1, where the amino acids 445–487 had been deleted (PLCδ1Δ^44), to generate their respective expression clones ready for preparing stable cell lines in HEK.
(§2) Stable cell lines overexpressing PLCγ1^S345F or PLCδ1^Δ44 were prepared as described in [28]. […] Fluorescence-activated cell sorting (FACS) was used to select the top 10% of GFP-expressing cells. […]
(§3) PLC activity in cell lines was measured using the IP-ONE assay according to the manufacturer’s instructions as described in [28]. […]

PLCγ1^S345F [1] = target: T2, PLCγ1^S345F (Homo sapiens, UniProt P19174, S345F); test: IP-ONE assay in HEK stable cell line expressing PLCγ1^S345F; type: cell-based
T2 construct: Avi-tag (N); His-tag (N); expressed in transfected cells
T2 sequence (P19174 1-1290 S345F): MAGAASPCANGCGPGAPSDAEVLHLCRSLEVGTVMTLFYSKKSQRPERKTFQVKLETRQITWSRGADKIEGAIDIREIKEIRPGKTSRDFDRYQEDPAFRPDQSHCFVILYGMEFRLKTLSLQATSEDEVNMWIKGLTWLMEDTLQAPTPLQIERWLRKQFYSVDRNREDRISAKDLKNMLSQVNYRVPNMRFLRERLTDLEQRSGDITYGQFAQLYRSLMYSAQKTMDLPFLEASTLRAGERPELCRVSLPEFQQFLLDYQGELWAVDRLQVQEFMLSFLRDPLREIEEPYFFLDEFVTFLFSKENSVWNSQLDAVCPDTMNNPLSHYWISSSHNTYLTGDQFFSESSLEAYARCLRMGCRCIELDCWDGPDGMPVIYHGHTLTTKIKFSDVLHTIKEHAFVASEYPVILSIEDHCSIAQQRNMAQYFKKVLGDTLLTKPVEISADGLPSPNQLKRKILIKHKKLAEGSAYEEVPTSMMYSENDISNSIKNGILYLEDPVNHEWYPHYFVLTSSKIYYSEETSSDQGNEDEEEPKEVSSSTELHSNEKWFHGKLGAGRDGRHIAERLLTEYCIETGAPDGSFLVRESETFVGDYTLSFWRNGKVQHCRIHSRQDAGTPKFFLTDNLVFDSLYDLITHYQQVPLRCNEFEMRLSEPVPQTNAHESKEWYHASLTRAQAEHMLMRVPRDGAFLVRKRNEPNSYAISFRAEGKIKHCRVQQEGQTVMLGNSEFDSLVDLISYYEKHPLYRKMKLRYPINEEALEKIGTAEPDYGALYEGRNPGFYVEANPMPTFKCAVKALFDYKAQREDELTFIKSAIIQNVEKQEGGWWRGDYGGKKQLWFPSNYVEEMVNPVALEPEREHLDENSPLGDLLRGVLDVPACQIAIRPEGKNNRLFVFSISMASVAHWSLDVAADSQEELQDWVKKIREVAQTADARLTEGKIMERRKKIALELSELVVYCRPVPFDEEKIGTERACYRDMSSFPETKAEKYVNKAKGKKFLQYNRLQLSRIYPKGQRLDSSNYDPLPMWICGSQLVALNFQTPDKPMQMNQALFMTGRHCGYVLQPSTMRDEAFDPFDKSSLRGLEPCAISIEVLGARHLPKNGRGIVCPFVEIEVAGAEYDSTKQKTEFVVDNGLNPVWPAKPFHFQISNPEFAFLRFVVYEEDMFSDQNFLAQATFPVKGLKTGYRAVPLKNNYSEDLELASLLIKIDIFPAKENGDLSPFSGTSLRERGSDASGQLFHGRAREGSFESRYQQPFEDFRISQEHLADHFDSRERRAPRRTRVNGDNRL
Excerpt: as §1, §2, §3

PLCγ1^S345F [2] = target: T3, PLCγ1^S345F (Homo sapiens, UniProt P19174, I813T/S345F); test: Fluorescence polarisation competition with TNP-ATP; type: binding; conditions: fixed TNP-ATP
T3 construct: His-tag (N); Myc-tag (C); made in house; host or cells: Escherichia coli T7 Express lysY/Iq
T3 sequence (P19174 1-1291 isoform P19174-2 S345F/I813T): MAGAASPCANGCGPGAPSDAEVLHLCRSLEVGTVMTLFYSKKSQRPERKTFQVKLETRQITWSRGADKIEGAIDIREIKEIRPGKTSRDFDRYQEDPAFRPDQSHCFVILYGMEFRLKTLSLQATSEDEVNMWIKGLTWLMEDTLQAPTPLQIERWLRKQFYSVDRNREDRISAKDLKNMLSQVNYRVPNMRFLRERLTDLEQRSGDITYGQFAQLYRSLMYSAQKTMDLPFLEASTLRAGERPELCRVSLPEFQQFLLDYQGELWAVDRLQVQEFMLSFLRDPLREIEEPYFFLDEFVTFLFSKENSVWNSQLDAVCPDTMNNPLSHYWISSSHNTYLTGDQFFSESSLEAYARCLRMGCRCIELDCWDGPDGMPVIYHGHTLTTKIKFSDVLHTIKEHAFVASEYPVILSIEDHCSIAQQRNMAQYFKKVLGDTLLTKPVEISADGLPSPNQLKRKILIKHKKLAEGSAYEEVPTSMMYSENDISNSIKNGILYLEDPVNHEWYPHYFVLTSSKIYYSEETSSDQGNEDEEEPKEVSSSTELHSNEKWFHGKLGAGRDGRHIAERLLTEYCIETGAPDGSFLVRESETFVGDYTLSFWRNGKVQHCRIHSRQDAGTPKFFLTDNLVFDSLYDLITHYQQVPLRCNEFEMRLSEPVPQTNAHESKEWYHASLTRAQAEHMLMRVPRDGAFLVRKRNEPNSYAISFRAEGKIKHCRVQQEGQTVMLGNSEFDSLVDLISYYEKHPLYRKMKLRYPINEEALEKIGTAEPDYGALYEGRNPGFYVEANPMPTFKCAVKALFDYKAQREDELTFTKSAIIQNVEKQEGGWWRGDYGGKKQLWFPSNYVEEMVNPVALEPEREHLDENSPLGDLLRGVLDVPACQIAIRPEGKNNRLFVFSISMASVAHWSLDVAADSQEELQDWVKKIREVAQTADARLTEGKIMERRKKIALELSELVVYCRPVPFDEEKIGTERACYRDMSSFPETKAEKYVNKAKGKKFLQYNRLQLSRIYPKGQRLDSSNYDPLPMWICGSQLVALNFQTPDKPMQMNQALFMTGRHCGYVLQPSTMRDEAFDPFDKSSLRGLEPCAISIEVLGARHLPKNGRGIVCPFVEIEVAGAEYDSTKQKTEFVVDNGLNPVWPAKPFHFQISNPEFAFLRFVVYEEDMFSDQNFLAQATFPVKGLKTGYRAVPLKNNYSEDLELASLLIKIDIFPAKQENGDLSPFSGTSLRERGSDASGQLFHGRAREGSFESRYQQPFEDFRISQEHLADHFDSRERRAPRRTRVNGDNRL
Method: Experiments were performed in black small volume 384-well plates (Greiner) on a Pherastar FS microplate reader (BMG Labtech) utilising an FP module with Excitation 485 nm and Emission 520 nm. […] PLCγ1^S345F protein was titrated against the fixed concentration of TNP-ATP and the FP data fit in GraphPad Prism using the One site Total binding model. […] Equal amounts of DMSO only were added in a parallel FP experiment. Generated data was also fit in GraphPad Prism using the One site -Total binding model. Each experiment was performed in triplicate and the data presented as the mean and SD.

CD95–PLCγ1 interaction = test system: CD95–PLCγ1 interaction; design: method as in PMID 30429604, PMID 31548507; conditions: cited from earlier work
disease mouse model = test system: disease mouse model; design: method as in PMID 30429604, PMID 31548507; conditions: cited from earlier work

## CC(=O)OC[C@H]1O[C@@H](n2ncc(=O)[nH]c2=O)[C@H](OC(C)=O)[C@@H]1OC(C)=O [Azaribine]
PLCδ1^Δ44
  effect on PLC activity of PLCδ1 in stable cell line: no effect
PLCδ1^Δ44; PLCδ1 Δ44
  IC50, PLC activity (IP1) in stable cell line: no inhibition
PLCγ1^S345F [1]
  inhibition of PLC activity of PLCγ1^S345F in cell-based assay: potently inhibited
PLCγ1^S345F [1]; PLCγ1 S345F, read-out: IC50, PLC activity (IP1) in stable cell line
  IC50: 1600 nM

## O=P(O)(O)CP(=O)(O)OC[C@H]1O[C@@H](n2cnc3c(NCc4ccccc4)ncnc32)[C@H](O)[C@@H]1O [PSB 12379]
PLCγ1^S345F [2]
  competition with binding of fluorescently labelled ATP analogue (TNP-ATP): competed

## CC(C)c1nc(CN(C)C(=O)N[C@H](C(=O)N[C@@H](Cc2ccccc2)C[C@H](O)[C@H](Cc2ccccc2)NC(=O)OCc2cncs2)C(C)C)cs1 [ritonavir]
CD95–PLCγ1 interaction
  CD95–PLCγ1 interaction: disrupt
Disease mouse model
  clinical symptoms in a disease mouse model: alleviating clinical symptoms

Source: article PMC12687421, “Characterisation of an allosteric site in PLCγ enzymes and implications for development of their specific inhibitors” (Biochemical Journal, 2025)
